The values below are quoted from earlier work in US20230017920A1, “SHELF-STABLE HYPOCHLOROUS ACID” (priority 2019, published 2023).

The data set relates to individual bacterial cells. The note with it: various studies, H Park et al., Int J Food Microbiol 91 (2004) 13-18.

In the case of `OCl` [HOCl, hypochlorous acid], the “time to kill individual bacterial cells” value is “within seconds”.
